Converted amounts (≈) assume the structure as drawn.
Assays:
[1] = Moisture adsorption/desorption (microbalance, automatic vapor adsorption apparatus); assay type: physicochemical; conditions: for Moisture adsorption/desorption: change in weight / stability: crystals about 20 mg, relative humidities 10 to 90% RH
Procedure: Compound (1), compound (a), and salts of compound (a) prepared in Example 1, Referential Example 1, and Comparative Example 1, respectively, were evaluated in terms of moisture adsorption/desorption. Specifically, the amount of water adsorbed on or desorbed from each compound was determined through subjecting crystals (about 20 mg) of each compound to a microbalance (automatic vapor adsorption apparatus) and measuring time-elapsed change in weight at relative humidities (RH) ranging from 10 to 90%.

[2] = Solubility to water (37° C.); assay type: physicochemical; conditions: for Water-solubility (in words) / solubility: 37° C., water; for solubility: Table 1
[3] = molecular target: VLA-4 (Homo sapiens, UniProt P05556+P13612); experiment: VLA-4 inhibitory activity; assay type: binding; conditions: compared with compound (a)
VLA-4, sequence (P13612 34-1032): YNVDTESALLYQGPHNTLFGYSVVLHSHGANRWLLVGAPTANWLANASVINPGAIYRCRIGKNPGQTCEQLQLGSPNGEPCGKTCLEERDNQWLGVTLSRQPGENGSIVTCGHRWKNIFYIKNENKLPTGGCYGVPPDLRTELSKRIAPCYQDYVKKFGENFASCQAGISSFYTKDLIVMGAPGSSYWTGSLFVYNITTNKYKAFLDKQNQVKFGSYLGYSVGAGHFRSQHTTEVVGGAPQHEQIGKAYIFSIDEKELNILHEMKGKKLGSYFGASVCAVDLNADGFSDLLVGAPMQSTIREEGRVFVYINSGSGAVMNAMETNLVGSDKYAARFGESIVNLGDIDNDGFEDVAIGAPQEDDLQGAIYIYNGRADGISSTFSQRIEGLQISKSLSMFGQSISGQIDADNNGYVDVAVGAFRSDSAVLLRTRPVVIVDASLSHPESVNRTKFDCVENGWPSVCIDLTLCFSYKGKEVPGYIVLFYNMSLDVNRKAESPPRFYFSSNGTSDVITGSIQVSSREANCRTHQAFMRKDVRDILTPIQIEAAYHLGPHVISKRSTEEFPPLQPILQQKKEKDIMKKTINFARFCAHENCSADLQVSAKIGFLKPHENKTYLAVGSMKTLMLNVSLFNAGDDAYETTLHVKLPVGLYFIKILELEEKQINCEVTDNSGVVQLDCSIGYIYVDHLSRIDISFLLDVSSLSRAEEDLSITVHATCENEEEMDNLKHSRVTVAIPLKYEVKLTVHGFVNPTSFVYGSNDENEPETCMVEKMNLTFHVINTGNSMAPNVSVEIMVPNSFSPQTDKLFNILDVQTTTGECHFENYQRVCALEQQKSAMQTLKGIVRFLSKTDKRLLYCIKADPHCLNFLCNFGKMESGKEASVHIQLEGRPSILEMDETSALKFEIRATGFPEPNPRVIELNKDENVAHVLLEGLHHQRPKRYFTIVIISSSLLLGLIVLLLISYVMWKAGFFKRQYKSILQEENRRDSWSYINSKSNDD
VLA-4, sequence (P05556 21-798): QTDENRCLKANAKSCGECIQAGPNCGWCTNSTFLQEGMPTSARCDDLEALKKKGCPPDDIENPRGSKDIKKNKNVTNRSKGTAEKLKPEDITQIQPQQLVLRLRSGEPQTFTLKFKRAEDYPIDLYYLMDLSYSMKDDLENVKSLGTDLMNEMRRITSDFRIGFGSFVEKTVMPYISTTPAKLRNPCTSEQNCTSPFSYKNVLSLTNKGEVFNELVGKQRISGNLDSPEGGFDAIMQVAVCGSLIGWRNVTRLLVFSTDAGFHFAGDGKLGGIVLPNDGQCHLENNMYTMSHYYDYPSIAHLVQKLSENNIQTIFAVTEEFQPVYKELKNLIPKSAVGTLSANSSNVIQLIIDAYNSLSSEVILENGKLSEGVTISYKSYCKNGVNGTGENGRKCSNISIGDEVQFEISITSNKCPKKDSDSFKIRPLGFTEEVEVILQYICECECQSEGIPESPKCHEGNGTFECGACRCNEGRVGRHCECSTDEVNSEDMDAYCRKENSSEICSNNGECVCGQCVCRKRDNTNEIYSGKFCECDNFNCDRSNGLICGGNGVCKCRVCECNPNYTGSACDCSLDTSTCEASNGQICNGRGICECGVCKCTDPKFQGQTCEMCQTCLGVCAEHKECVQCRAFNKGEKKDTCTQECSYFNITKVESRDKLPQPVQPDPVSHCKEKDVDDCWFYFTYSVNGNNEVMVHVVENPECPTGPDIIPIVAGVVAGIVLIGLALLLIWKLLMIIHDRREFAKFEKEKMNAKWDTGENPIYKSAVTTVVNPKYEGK

Row | Compound | Storage stability (moisture adsorption/desorption property) of crystal forms ([1]; Type-I and Type-II crystals of compound (1), FIG. 5) | Water Solubility ([2]; crystal forms of compound (1), manner similar to Test Example 2, Table 3) [µg/mL] | Moisture adsorption/desorption: change in weight / stability [1] | Water-solubility (in words) [2] | solubility [2] [µg/mL] | VLA-4 inhibitory activity [3]
1 | CO[C@H]1C[C@@H](CO[C@H]2CC[C@H](C(=O)[O-])CC2)N(C(=O)Cc2cc(Cl)c(NC(=O)c3cn(C)c4ccccc34)cc2Cl)C1.[Na+] [Type-I] | good storage stability | >1000 |  |  |  | 
2 | CO[C@H]1C[C@@H](CO[C@H]2CC[C@H](C(=O)O)CC2)N(C(=O)Cc2cc(Cl)c(NC(=O)c3cn(C)c4ccccc34)cc2Cl)C1 [Compound (a), trans-4-[1-[2,5-dichloro-4-[(1-methyl-1H-3-indolylcarbonyl)amino]phenylacetyl]-(4S)-methoxy-(2S)-pyrrolidinylmethoxy]cyclohexanecarboxylic acid, reference compound] |  |  | change in weight at 40 to 60% RH | considerably low water-solubility | 0.653 (≈ 1.06 µM) | 
3 | CO[C@H]1C[C@@H](CO[C@H]2CC[C@H](C(=O)[O-])CC2)N(C(=O)Cc2cc(Cl)c(NC(=O)c3cn(C)c4ccccc34)cc2Cl)C1.[Na+] [Compound (1), sodium trans-4-[1-[2,5-dichloro-4-[(1-methyl-1H-3-indolylcarbonyl)amino]phenylacetyl]-(4S)-methoxy-(2S)-pyrrolidinylmethoxy]cyclohexanecarboxylate pentahydrate] |  |  | no change in weight under typical humidity conditions | very high water-solubility | > 1000 | comparable to that of compound (a)

Source: US7893279B2, “Cyclohexanecarboxylic acid compound” (Daiichi Pharmaceutical Co., Ltd., priority 2003, dated 2011)
